In patent publication US20230129258A1, “HETEROTANDEM BICYCLIC PEPTIDE COMPLEXES” (BicycleTx Limited, priority 2019, published 2023):
Like-named read-outs stand apart in the source and are kept apart here. Starred links: 1 amine or outer side, 2 acyl side, 3 side chain; linkers in the order of their positions; H or OH if unused. Positions of bridges follow the written chain, without caps; N, C: chain ends. Non-standard residues stand in square brackets, D forms with d. Chains are numbered I, II in the order given. No end group written: not given here. ξ: configuration not given here. *: point of attachment. X1 = O=C(CCOCCOCCOCCN(CCOCCOCCOCCn1cc(CCC(=O)[*:2])nn1)CCOCCOCCOCCn1cc(CCC(=O)[*:3])nn1)[*:1]; X3 = O=C(CCc1cn(CCOCCOCCOCCN(CCOCCOCCOCCC(=O)[*:3])CCOCCOCCOCCn2cc(CCC(=O)[*:2])nn2)nn1)[*:1]; X2 = O=C(CCSCCC(=O)[*:1])N1CN(C(=O)CC[*:2])CN(C(=O)CC[*:3])C1; TATA = O=C(CC[*:1])N1CN(C(=O)CC[*:2])CN(C(=O)CC[*:3])C1; ξDip = NC(C(=O)O)C(c1ccccc1)c1ccccc1; Hyp = O=C(O)[C@@H]1C[C@@H](O)CN1; hArg = N=C(N)NCCCC[C@H](N)C(=O)O; tBuAla = CC(C)(C)C[C@H](N)C(=O)O; Cba = N[C@@H](CC1CCC1)C(=O)O; Nle = CCCC[C@H](N)C(=O)O; Pent4ynoyl = C#CCCC(=O)*; ξP = O=C(O)C1CCCN1; Mpa = O=C(O)CCS

Legend:
CD137 = CD137 (Homo sapiens, UniProt Q07011); assay: CD137 reporter assay (Promega, Jurkat cells) in co-culture with EphA2-expressing tumor cells (A549, PC3, HT29); assay type: cell-based; parameters: host or cells: Jurkat reporter cells; settings: for Emax (fold induction over background): CD137 reporter coculture assay with PC3 tumor cells; for EC50: EC50, CD137 reporter coculture assay with PC3 tumor cells
Sequence of CD137 (Q07011 24-255): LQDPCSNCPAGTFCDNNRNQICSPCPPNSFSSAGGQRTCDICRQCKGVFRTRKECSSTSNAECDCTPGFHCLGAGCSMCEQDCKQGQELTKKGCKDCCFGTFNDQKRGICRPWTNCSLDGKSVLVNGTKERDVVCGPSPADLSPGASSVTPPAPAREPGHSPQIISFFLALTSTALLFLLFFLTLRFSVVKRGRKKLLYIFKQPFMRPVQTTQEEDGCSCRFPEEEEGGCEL
Procedure, shortened: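 Readout is Bio-Glo luminescence after 6 h, 37° C co-culture of CD137 reporter Jurkat cells, target tumor cells (EphA2: A549, PC3, HT29; PD-L1: RKO) and titrated test articles in 1% FBS RPMI. EC50 (nM) and maximal induction come from fold change over untreated co-culture.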

[1] = Pharmacokinetics in SD rats; assay type: in vivo; settings: rat, IV Inf (15 minutes); for half-life: iv, read-out: T1/2 (converted); for clearance: read-out: Clp; for Vd: read-out: Vdss
Method: Male SD Rats were dosed with each heterotandem Bicycle peptide complex formulated in 25 mM Histidine HCl, 10% sucrose pH 7 by IV bolus or IV infusion (15 minutes). Serial bleeding (about 80 μL blood/time point) was performed via submandibular or saphenous vein at each time point. All blood samples were immediately transferred into prechilled microcentrifuge tubes containing 2 μL K2-EDTA (0.5M) as anti-coagulant and placed on wet ice. Blood samples were immediately processed for plasma by centrifugation at approximately 4° C., 3000 g. The precipitant including internal standard was immediately added into the plasma, mixed well and centrifuged at 12,000 rpm, 4° C. for 10 minutes. The supernatant was transferred into pre-labeled polypropylene microcentrifuge tubes, and then quick-frozen over dry ice. The samples were stored at […] or below as needed until analysis. 7.5 μL of the supernatant samples were directly injected for LC-MS/MS analysis using an Orbitrap Q Exactive in positive ion mode to determine the concentrations of analyte. Plasma concentration versus time data were analyzed by non-compartmental approaches using the Phoenix WinNonlin 6.3 software program. C0, CI, Vdss, T½, AUC(0-last), AUC(0-inf), MRT(0-last), MRT(0-inf) and graphs of plasma concentration versus time profile were reported.

human PBMCs = assay: Human PBMC co-culture cytokine secretion assay with EphA2-expressing tumor cells (MC38, HT-1080, HT29); assay type: cell-based; settings: human PBMC-MC38 co-culture
Method: […] MC38 were cultured in Dulbecco's Modified Eagle Medium supplemented with 10% heat inactivated Fetal Bovine Serum (FBS), 1× Penicillin/Streptomycin, 10 mM HEPES, and 2 mM L-Glutamine (referred to as R10 medium). Frozen PBMCs from healthy human donors were thawed and washed once in room temperature PBS with benzonase, and then resuspended in RPMI supplemented with 10% heat inactivated Fetal Bovine Serum (FBS), 1× Penicillin/Streptomycin, 10 mM HEPES, and 2 mM L-Glutamine (herein referred to as R10 medium). 100 μl of PBMCs (1,000,000 PBMCs/ml) and 100 μl of tumor cells (100,000 tumor cells/ml) (Effector:Target cell ratio (E:T) 10:1) were plated in each well of a 96 well flat bottom plate for the co-culture assay. 100 ng/ml of soluble anti-CD3 mAb (clone OKT3) was added to the culture on day 0 to stimulate human PBMCs. Test, control compounds, or vehicle controls were diluted in R10 media and 50 μL was added to respective wells to bring the final volume per well to 250 μL. Plates were covered with a breathable film and incubated in a humidified chamber at 37° C. with 5% CO2 for two days. […] Briefly, the standards and samples were added to a black 96 well plate. Microparticle cocktail (provided in Luminex kit, R&D Systems) was added and shaken for 2 hours at room temperature. The plate was washed 3 times using a magnetic holder. Biotin cocktail was then added to the plate and shaken for 1 hour at RT. The plate was washed 3 times using a magnetic holder. Streptavidin cocktail was added to the plate and shaken for 30 minutes at RT. The plates were washed 3 times using a magnetic holder, resuspended in 100 μL of wash buffer, shaken for 2 minutes at RT, and read using the Luminex 2000. Raw data were analyzed using built-in Luminex software to generate standard curves and interpolate protein concentrations, all other data analyses and graphing were performed using Excel and Prism software. Data represents one study with three independent donor PBMCs tested in experimental duplicates.
Similarly, PBMCs from healthy donors were co-cultured with EphA2 expressing cancer cells (MC38 and HT-1080) at a ratio of 5:1 in presence of anti-CD3 and BCY13272. […]

MC38 tumors = assay: Anti-tumor activity of EphA2/CD137 complexes in syngeneic MC38 tumor model; assay type: in vivo, C57BL/6J-hCD137 mice; settings: day 28
Method: 6-8 weeks old C57BL/6J-hCD137 female mice were inoculated in the flank with 1×10^6 syngeneic MC38 cells. When tumors reached 76 mm^3 size on average, mice were randomized to receive vehicle or BCY12491 (intraperitoneal administration). BCY12491 was administered (n=6 mice/treatment cohort) at either 5 mg/kg or 15 mg/kg either daily (QD) or every three days (Q3D). QD dosed mice received 22 doses of BCY12491 and Q3D dosed mice received 8 doses of BCY12491. Tumor growth was monitored by caliper measurements until day 73 after treatment initiation. The results of this experiment may be seen in FIG. 9 where it can be seen that the effect of BCY12491 on tumor growth becomes apparent in the first two weeks of the dosing period reducing the tumor growth and causing reduction of volumes of many of the treated tumors. By day 41, 15 out of 24 BCY12491 treated animals had completely responded to the treatment and had no palpable tumors left.
6-8 week old female C57BL/6J-hCD137 mice [B-hTNFRSF9(CD137) mice; Biocytogen] were implanted subcutaneously with 1×10^6 MC38 cells. Mice were randomized into treatment groups (n=6/cohort) when average tumor volumes reached around 76 mm^3 and were treated with daily doses of vehicle (25 mM histidine, 10% sucrose, pH7). BCY12491 treatment was conducted at two different dose levels (5 and 15 mg/kg) and two different dosing schedules (QD: daily; Q3D: every three days). Animals received either 22 QD doses or 8 Q3D doses intraperitoneally (ip). Tumor growth was monitored until tumor reached volumes over 2000 mm^3 or until 73 days after treatment initiation. After Day 73, 5 complete responder animals were re-challenged with MC38 tumor cell implantation alongside with 5 naïve C57BL/6J-hCD137 mice. Tumor growth was monitored for 20 days.
(§1) 6-8 week old female C57BL/6J-hCD137 mice [B-hTNFRSF9(CD137) mice; Biocytogen] were implanted subcutaneously with 1×10^6 MC38 cells. Mice were randomized into treatment groups (n=6/cohort) when average tumor volumes reached around 92 mm^3 and were treated intravenously with Q3D doses of vehicle (25 mM histidine, 10% sucrose, pH7), 15 mg/kg of BCY12730, BCY12723 or BCY12491 (7 Q3D doses). Tumor growth was monitored for 28 days or until tumors exceeded 2000 mm^3.
as §1, with “76” for “92”, “twice weekly (BIW)” for “Q3D”, “5” for “15”, “BCY13048, BCY13050,” for “BCY12730, BCY12723”, “(6 BIW” for “(7 Q3D”

MC38 tumor tissue = assay: Immune response in MC38 tumors (nCounter transcriptional analysis, CD8 IHC); assay type: in vivo, C57BL/6J-hCD137 mice; settings: Q3D x3, peptides 15 mg/kg IV, anti-CD137 2 mg/kg ip
Method: 6-8 week old female C57BL/6J-hCD137 mice [B-hTNFRSF9(CD137) mice; Biocytogen] were implanted subcutaneously with 1×10^6 MC38 cells. Mice were randomized into treatment groups when average tumor volumes reached around 240 mm^3 and were treated (n=6/treatment cohort) with vehicle (25 mM histidine, 10% sucrose, pH7) intravenously (IV), 15 mg/kg BCY12491 (EphA2: CD137 1:2 Heterotandem Complex) IV, 15 mg/kg BCY13626 (non-binding control for EphA2) IV or 2 mg/kg Anti-CD137 (urelumab analogue) intraperitoneally. All treatments were given Q3D for three doses and tumor tissues were harvested 1 hour after the last dose. Part of the tumor tissue was used for RNA isolation for transcriptional analysis and a part of the tumor tissue was used for formalin fixed paraffin embedded (FFPE) sample preparation for immunohistochemical (INC) analysis. RNA was isolated from tumor tissues using RNAeasy kit [Qiagen] and transcriptional analysis was performed using nCounter Mouse PanCancer IO 360 panel (Nanostring) from 100 ng RNA/tumor. Data was analysed using the nSolver Analysis Software (Nanostring). CD8+ tumor infiltrating cells were stained in FFPE tissue sections using anti-mouse CD8 antibody (Abcam, #ab217344) and Ventana Discovery OmniMap anti Rabbit-HRP Kit (Ventana #760 4310).

[2] = Donor 1, 48 h incubation, read-out: Donor 1 EC50 of IFNγ secretion
[3] = Donor 2, 48 h incubation, read-out: Donor 2 EC50 of IFNγ secretion
[4] = Donor 1, 72 h incubation, read-out: Donor 1 EC50 of IFNγ secretion
[5] = Donor 2, 72 h incubation, read-out: Donor 2 EC50 of IFNγ secretion

Substance	Emax (fold induction over background) (CD137)	EC50 (CD137) [nM]	half-life ([1]; male, SD, plasma) [h]	clearance ([1]; male, SD, plasma) [mL/min/kg]	Vd ([1]; male, SD, plasma) [L/kg]	EC50 (human PBMCs; [2]) [nM]	EC50 (human PBMCs; [3]) [nM]	complete responses (MC38 tumors; 5 mg/kg IV BIW, 6 doses)	EC50 (human PBMCs; [4]) [nM]	EC50 (human PBMCs; [5]) [nM]	complete responses (MC38 tumors; 15 mg/kg IV Q3D, 7 doses)	other results
I: Ac-C[tBuAla]PE[dK]PYCFADPY[Nle]CA-NH2 / II: Ac-C[tBuAla]PE[dK]PYCFADPY[Nle]CA-NH2 / III: C[Hyp]LVNPLCL[ξDip]P[dD]WTC-NH2 (linker I:1-I:8-I:15, II:1-II:8-II:15, III:1-III:8-III:15 via TATA; linker I:5-II:5-III:N via X3) [BCY13048]	48.35	0.09	3.8	11	1.2	0.3	0.24	5 out of 6	–	–	–	–
I: A[hArg]DC[Hyp][Cba]VN[ξP]LCLHP[dD]W[hArg]C-NH2 / II: Ac-C[tBuAla]PE[dK]PYCFADPY[Nle]CA-NH2 / III: Ac-C[tBuAla]PE[dK]PYCFADPY[Nle]CA-NH2 (linker I:4-I:11-I:18, II:1-II:8-II:15, III:1-III:8-III:15 via TATA; linker I:N-II:5-III:5 via X1) [BCY13050]	42.46	0.09	3.3	11	1.4	–	–	3 out of 6	0.38	0.19	–	–
I: A[hArg]DC[Hyp]LVNPLCLHP[dD]W[hArg]C-NH2 / II: [Mpa][tBuAla]PE[dK]PYCFADPY[Nle]C-NH2 / III: [tBuAla]PE[dK]PYCFADPY[Nle]C-NH2 (linker I:4-I:11-I:18, II:1-II:8-II:15 via TATA; linker I:N-II:5-III:4 via X1; linker III:N-III:7-III:14 via X2) [BCY12730]	61.73	0.25	–	–	–	0.13	0.19	–	–	–	3 out of 6	half-life ([1]; in vivo): 2 h; clearance ([1]; in vivo): 18 mL/min/kg; Vd ([1]; in vivo): 2.6 L/kg
BCY12723: EphA2:CD137 1:2; BCY9594 + 2x BCY12143; linker N-(acid-PEG3)-N-bis(PEG3-azide) (peptide 1 A[hArg]DC[Hyp]LVNPLCLHP[dD]W[hArg]C; peptide 2 Ac-C[tBuAla]EE[dK](Pent4ynoyl)PYCFADPY[Nle]C; linker I:4-I:11-I:18, II:1-II:8-II:15 via TATA; not fully specified (bridges); also: chain 2 present twice on linker, EphA2:CD137 1:2)	–	–	–	–	–	–	–	–	0.13	0.095	2 out of 6	Fold Improvement over BCY9173, EC50 (nM) (CD137; co-culture with PC3): 2.2 fold; Fold Improvement over Emax (CD137; co-culture with PC3, versus BCY9173): 1.8 fold
anti-CD137 antibody: Anti-CD137 (urelumab analogue)	–	–	–	–	–	–	–	–	–	–	–	CD8+ cell infiltration in tumor (IHC) (MC38 tumor tissue): Some increase in CD8+ cell infiltration; T cell score in tumor tissue (MC38 tumor tissue; vs vehicle): increased significantly; cytotoxic cell score in tumor tissue (MC38 tumor tissue; vs vehicle): increased significantly
